Earlier results as cited in patent US12637369B2, “Method for selectively removing perfluorinated compounds with electrooxidation” (SK hynix Inc., priority 2021, dated 2026).
In brackets after ≈: the same amount, converted by molar mass.

Legend:
[1] = not given; remark: listed apart in the source

O=S(=O)(O)C(F)(F)C(F)(F)C(F)(F)C(F)(F)F [PFBS, Perfluorobutane sulfonic acid]
Solubility in water: Very high
pKa [1]: −3.94

O=C(O)C(F)(F)C(F)(F)C(F)(F)C(F)(F)C(F)(F)C(F)(F)C(F)(F)C(F)(F)F [PFNA, Perfluorononanoic acid]
Solubility in water: 9500 µg/mL (≈ 20.5 mM)
pKa [1]: 2-3

O=C(O)C(F)(F)C(F)(F)C(F)(F)C(F)(F)C(F)(F)C(F)(F)C(F)(F)F [PFOA, Perfluorooctanoic acid]
Solubility in water: 3400 µg/mL (≈ 8.21 mM)

O=S(=O)(O)C(F)(F)C(F)(F)C(F)(F)C(F)(F)C(F)(F)C(F)(F)C(F)(F)C(F)(F)F [PFOS, Perfluorooctane sulfonic acid]
Solubility in water: 570 µg/mL (≈ 1.14 mM)
pKa [1]: −3.27
